Read-outs that look alike come from different tables or passages of the source.
What was measured:
Experiment in all cases: SelectScreen kinase specificity survey
Format in all cases: biochemical
PIM1 = target: T1, PIM1 (Homo sapiens, UniProt P11309); conditions: estimated, abridged dose response curve, read-out: Kinase inhibitory activity EC50
T1 construct: purchased Invitrogen, Inc. (SelectScreen platform)
Description: (§1) Testing of the compounds described in this invention was carried out using the SelectScreen™ platform from Invitrogen, Inc. (Carlsbad. Calif., USA) and the details of its performance are readily viewed via the web by linking to: http://www.invitrogen.com/downloads/SelectScrn_Brochure.pdf.
(§2) Briefly, the approach is based on treating each specific kinase with a unique substrate and optical reporter system in the presence of ATP at 100 micromolar. In controls, the substrate is phosphorylated and a baseline optimal response is recorded.
(§3) The compounds were then re-tested by adding graded amounts of putative inhibitor which were added in 5 separate increments to generate a dose response curve. The latter is obtained by fitting to a 4 parameter Hill equation, a sigmoid saturation equation.
(§4) The same assay system described in Example 2 can be applied in the determination of kinase specificity. It is well understood by medicinal chemists in the development of kinase inhibitors that the resulting molecules often lack specificity. Not only are homologous kinases inhibited by the same class of compounds, but also non-homologous kinases can be affected by allosteric, induced, activated vs inactivated conformation, and protein folding interactions with the putative inhibitor, which otherwise had been designed to be specific. These off target effects are difficult to predict and can only be ruled in or out by empirically surveying a large set of kinases. It is also understood that changes to scaffolds and variation in their chemical decorations may influence the extent of promiscuity in the patterns of kinase inhibition across kinase classes.
(§5) The following experiment was conducted to address this issue. The indazole compound (IV), described in Example 2 and representative of the new genus was tested along with Symadex against a panel of 230 kinases representative of all known kinases classes. Included in the survey were the Flt3, its mutant, and close relatives in the Class III receptor tyrosine kinase class, together with serine-threonine kinases and atypical kinases many of which share no homology of active site with Flt3 as shown, for example, in the respective “genecard” for each kinase and available for inspection at on the web at http://www.genecards.org/.
(§6) Table 3 lists the estimated EC50 values from an abridged dose response curve for Symadex (C-1311) and CF-123. The kinases are listed alphabetically by Group and Family.

MAPK12 (p38 gamma) = target: T2, MAPK12 (p38 gamma) (Homo sapiens, UniProt P53778); conditions: estimated, abridged dose response curve, read-out: Kinase inhibitory activity EC50
T2 construct: purchased Invitrogen (SelectScreen platform)
Description: as §1, §2, §3, §4, §5, §6

CSNK1G2 (CK1 gamma 2) = target: T3, CSNK1G2 (CK1 gamma 2) (Homo sapiens, UniProt P78368); conditions: estimated, abridged dose response curve, read-out: Kinase inhibitory activity EC50
T3 construct: purchased Invitrogen (SelectScreen platform)
Description: as §1, §2, §3, §4, §5, §6

DYRK1B = target: T4, DYRK1B (Homo sapiens, UniProt Q9Y463); conditions: estimated, abridged dose response curve, read-out: Kinase inhibitory activity EC50
T4 construct: purchased Invitrogen (SelectScreen platform)
Description: as §1, §2, §3, §4, §5, §6

EPHB2 = target: T5, EPHB2 (Homo sapiens, UniProt P29323); conditions: estimated, abridged dose response curve, read-out: Kinase inhibitory activity EC50
T5 construct: purchased Invitrogen (SelectScreen service)
Description: as §1, §2, §3, §4, §5, §6

EPHA4 = target: T6, EPHA4 (Homo sapiens, UniProt P54764); conditions: estimated, abridged dose response curve, read-out: Kinase inhibitory activity EC50
T6 construct: purchased Invitrogen (SelectScreen service)
T6 sequence (P54764 20-986): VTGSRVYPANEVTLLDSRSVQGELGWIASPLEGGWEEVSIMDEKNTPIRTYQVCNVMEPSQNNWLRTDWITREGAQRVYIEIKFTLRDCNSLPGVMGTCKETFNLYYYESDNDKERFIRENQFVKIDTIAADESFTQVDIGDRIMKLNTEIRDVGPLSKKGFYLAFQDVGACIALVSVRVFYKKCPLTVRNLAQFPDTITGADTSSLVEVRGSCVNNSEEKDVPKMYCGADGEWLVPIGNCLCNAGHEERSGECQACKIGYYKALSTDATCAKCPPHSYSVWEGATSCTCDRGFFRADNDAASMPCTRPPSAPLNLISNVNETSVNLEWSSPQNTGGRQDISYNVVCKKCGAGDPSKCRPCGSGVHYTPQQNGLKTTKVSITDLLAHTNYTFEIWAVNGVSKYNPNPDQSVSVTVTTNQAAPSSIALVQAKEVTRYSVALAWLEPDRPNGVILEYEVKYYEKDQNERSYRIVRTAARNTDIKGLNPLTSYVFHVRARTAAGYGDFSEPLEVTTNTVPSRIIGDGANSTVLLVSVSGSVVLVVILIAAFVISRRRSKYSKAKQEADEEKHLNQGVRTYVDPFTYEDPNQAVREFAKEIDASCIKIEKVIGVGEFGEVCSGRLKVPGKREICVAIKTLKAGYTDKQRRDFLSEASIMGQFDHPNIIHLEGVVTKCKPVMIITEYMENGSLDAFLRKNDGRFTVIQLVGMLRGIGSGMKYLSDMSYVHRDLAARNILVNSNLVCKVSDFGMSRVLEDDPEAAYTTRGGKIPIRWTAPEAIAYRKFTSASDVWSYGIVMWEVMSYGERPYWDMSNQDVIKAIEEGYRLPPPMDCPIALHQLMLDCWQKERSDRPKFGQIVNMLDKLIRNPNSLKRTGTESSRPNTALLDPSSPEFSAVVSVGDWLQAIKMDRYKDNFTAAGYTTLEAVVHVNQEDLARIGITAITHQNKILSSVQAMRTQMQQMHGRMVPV
Description: as §1, §2, §3, §4, §5, §6

MYLK2 (skMLCK) = target: T7, MYLK2 (skMLCK) (Homo sapiens, UniProt Q9H1R3); conditions: estimated, abridged dose response curve; for EC50: read-out: Kinase inhibitory activity EC50
T7 construct: purchased Invitrogen, Inc. (SelectScreen platform)
Description: as §1, §2, §3, §4, §5, §6

SGKL (SGK3) = target: T8, SGKL (SGK3) (Homo sapiens, UniProt Q96BR1); conditions: estimated, abridged dose response curve, read-out: Kinase inhibitory activity EC50
T8 construct: purchased Invitrogen, Inc. (SelectScreen platform)
Description: as §1, §2, §3, §4, §5, §6

PRKD2 (PKD2) = target: T9, PRKD2 (PKD2) (Homo sapiens, UniProt Q9BZL6); conditions: estimated, abridged dose response curve, read-out: Kinase inhibitory activity EC50
T9 construct: purchased Invitrogen, Inc. (SelectScreen platform)
T9 sequence (Q9BZL6 whole entry): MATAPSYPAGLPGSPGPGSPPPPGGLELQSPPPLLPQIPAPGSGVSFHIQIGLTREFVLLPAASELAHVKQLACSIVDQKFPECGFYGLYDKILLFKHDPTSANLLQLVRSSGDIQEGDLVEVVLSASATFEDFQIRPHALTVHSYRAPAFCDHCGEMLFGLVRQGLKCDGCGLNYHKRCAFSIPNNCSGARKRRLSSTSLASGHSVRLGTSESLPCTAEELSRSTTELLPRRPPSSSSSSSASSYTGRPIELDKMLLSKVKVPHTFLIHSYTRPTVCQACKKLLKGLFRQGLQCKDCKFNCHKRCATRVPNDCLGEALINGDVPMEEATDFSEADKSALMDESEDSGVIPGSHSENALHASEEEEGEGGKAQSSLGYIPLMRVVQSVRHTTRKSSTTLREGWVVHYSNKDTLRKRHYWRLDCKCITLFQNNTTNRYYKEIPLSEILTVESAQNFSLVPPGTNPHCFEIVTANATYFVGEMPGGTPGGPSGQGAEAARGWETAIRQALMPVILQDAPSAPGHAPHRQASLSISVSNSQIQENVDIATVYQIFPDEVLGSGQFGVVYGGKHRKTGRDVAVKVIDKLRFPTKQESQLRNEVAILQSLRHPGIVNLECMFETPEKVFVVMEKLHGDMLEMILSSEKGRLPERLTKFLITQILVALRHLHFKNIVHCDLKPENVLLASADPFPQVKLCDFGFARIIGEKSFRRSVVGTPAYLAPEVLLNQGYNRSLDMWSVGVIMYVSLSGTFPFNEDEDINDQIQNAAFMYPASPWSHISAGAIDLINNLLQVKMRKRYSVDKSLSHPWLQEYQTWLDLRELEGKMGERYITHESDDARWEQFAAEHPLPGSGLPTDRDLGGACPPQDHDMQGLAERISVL
Description: as §1, §2, §3, §4, §5, §6

GRK5 = target: T10, GRK5 (Homo sapiens, UniProt P34947)
T10 construct: purchased Invitrogen (SelectScreen platform)
Description: as §1, §2, §3, §4, §5, §6

CDC42 BPB (MRCKB) = target: T11, CDC42 BPB (MRCKB) (Homo sapiens, UniProt Q9Y5S2); conditions: estimated, abridged dose response curve, read-out: Kinase inhibitory activity EC50
T11 construct: purchased Invitrogen (SelectScreen platform)
Description: as §1, §2, §3, §4, §5, §6

MAPKAPK5 (PRAK) = target: T12, MAPKAPK5 (PRAK) (Homo sapiens, UniProt Q8IW41); conditions: estimated, abridged dose response curve, read-out: Kinase inhibitory activity EC50
T12 construct: purchased Invitrogen, Inc. (SelectScreen platform)
Description: as §1, §2, §3, §4, §5, §6

ABL1 Y253F = target: T13, ABL1 Y253F (Homo sapiens, UniProt P00519, Y253F); conditions: estimated, abridged dose response curve, read-out: Kinase inhibitory activity EC50
T13 construct: purchased Invitrogen (SelectScreen platform)
Description: as §1, §2, §3, §4, §5, §6

PDGFRB (PDGFR beta) = target: T14, PDGFRB (PDGFR beta) (Homo sapiens, UniProt P09619); conditions: estimated, abridged dose response curve, read-out: Kinase inhibitory activity EC50
T14 construct: purchased Invitrogen (SelectScreen platform)
Description: as §1, §2, §3, §4, §5, §6

PRKCE (PKC epsilon) = target: T15, PRKCE (PKC epsilon) (Homo sapiens, UniProt Q02156); conditions: estimated, abridged dose response curve, read-out: Kinase inhibitory activity EC50
T15 construct: purchased Invitrogen, Inc. (SelectScreen platform)
Description: as §1, §2, §3, §4, §5, §6

NEK4 = target: T16, NEK4 (Homo sapiens, UniProt P51957); conditions: estimated, abridged dose response curve, read-out: Kinase inhibitory activity EC50
T16 construct: purchased Invitrogen, Inc. (SelectScreen service)
T16 sequence (P51957 whole entry): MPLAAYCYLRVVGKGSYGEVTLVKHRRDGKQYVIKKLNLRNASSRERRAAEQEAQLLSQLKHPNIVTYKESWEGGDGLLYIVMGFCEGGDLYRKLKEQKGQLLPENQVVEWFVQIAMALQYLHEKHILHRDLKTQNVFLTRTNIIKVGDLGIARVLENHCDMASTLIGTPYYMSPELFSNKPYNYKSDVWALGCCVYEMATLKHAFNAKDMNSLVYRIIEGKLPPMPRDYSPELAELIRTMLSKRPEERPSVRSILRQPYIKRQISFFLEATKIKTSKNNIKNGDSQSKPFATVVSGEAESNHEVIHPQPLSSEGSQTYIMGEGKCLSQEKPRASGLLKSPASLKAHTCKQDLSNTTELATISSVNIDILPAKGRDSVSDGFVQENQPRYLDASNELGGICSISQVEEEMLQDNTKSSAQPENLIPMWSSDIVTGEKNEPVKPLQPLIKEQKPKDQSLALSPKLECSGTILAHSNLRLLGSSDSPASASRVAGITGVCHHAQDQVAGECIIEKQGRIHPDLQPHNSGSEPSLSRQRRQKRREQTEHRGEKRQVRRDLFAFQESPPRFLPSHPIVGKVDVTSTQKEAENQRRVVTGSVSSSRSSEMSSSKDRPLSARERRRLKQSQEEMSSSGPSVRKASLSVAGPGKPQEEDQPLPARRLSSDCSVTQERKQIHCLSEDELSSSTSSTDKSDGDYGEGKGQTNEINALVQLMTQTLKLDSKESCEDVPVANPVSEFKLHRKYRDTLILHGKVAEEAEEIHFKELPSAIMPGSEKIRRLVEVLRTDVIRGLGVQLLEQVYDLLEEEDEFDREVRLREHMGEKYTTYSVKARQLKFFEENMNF
Description: as §1, §2, §3, §4, §5, §6

PRKCB1 (PKC beta I) = target: T17, PRKCB1 (PKC beta I) (Homo sapiens, UniProt P05771); conditions: estimated, abridged dose response curve, read-out: Kinase inhibitory activity EC50
T17 construct: purchased Invitrogen (SelectScreen platform)
Description: as §1, §2, §3, §4, §5, §6

PDGFRA (PDGFR alpha) = target: T18, PDGFRA (PDGFR alpha) (Homo sapiens, UniProt P16234); conditions: estimated, abridged dose response curve, read-out: Kinase inhibitory activity EC50
T18 construct: purchased Invitrogen (SelectScreen platform)
Description: as §1, §2, §3, §4, §5, §6

AKT3 (PKB gamma) = target: T19, AKT3 (PKB gamma) (Homo sapiens, UniProt Q9Y243); conditions: estimated, abridged dose response curve, read-out: Kinase inhibitory activity EC50
T19 construct: purchased Invitrogen (SelectScreen platform)
Description: as §1, §2, §3, §4, §5, §6

MAP4K5 (KHS1) = target: T20, MAP4K5 (KHS1) (Homo sapiens, UniProt Q9Y4K4); conditions: estimated, abridged dose response curve, read-out: Kinase inhibitory activity EC50
T20 construct: purchased Invitrogen (SelectScreen platform)
T20 sequence (Q9Y4K4 whole entry): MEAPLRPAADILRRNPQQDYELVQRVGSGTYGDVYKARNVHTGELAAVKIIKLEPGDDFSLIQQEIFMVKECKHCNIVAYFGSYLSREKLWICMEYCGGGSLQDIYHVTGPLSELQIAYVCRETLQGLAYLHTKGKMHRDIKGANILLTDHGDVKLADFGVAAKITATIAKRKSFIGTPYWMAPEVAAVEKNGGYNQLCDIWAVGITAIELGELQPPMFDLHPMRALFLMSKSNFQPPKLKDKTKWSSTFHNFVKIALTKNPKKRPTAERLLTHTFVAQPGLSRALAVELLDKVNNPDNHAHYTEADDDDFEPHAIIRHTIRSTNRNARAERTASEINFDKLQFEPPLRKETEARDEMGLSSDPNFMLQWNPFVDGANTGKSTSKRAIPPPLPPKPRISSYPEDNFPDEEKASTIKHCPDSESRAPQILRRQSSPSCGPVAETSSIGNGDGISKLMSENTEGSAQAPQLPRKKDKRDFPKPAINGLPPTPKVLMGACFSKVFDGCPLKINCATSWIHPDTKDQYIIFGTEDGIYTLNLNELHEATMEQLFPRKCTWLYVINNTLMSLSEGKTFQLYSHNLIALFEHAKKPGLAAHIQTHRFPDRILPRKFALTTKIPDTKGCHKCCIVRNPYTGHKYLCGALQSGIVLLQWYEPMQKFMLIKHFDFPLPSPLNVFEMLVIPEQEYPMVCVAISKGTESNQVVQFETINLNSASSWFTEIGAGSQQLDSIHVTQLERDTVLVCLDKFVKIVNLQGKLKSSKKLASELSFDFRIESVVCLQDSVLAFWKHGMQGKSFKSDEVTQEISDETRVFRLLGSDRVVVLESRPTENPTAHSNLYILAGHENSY
Description: as §1, §2, §3, §4, §5, §6

AURKA (Aurora A) = target: T21, AURKA (Aurora A) (Homo sapiens, UniProt O14965); conditions: estimated, abridged dose response curve, read-out: Kinase inhibitory activity EC50
T21 construct: purchased Invitrogen, Inc. (SelectScreen service)
Description: as §1, §2, §3, §4, §5, §6

CDK2/cyclin A = target: T22, CDK2/cyclin A (Homo sapiens, UniProt P24941); conditions: estimated, abridged dose response curve, read-out: Kinase inhibitory activity EC50
T22 construct: purchased Invitrogen (SelectScreen platform)
Description: as §1, §2, §3, §4, §5, §6

PAK4 = target: T23, PAK4 (Homo sapiens, UniProt O96013); conditions: estimated, abridged dose response curve, read-out: Kinase inhibitory activity EC50
T23 construct: purchased Invitrogen (SelectScreen platform)
T23 sequence (O96013 whole entry): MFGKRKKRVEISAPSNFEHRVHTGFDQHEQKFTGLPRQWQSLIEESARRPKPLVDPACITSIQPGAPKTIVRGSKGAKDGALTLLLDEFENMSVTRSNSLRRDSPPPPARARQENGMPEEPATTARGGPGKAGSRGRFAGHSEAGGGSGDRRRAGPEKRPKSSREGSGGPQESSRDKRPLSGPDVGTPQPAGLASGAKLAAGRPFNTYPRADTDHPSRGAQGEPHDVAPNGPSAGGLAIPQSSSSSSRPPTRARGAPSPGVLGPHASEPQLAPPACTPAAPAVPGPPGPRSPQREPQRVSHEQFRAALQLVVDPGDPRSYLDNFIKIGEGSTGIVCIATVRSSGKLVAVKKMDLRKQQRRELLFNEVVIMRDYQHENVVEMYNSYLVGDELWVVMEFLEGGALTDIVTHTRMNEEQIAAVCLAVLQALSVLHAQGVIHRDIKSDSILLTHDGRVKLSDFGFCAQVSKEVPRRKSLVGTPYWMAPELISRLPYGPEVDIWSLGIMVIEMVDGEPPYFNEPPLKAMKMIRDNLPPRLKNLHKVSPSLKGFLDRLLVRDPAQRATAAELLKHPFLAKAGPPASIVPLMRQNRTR
Description: as §1, §2, §3, §4, §5, §6

FGFR2 = target: T24, FGFR2 (Homo sapiens, UniProt P21802); conditions: estimated, abridged dose response curve, read-out: Kinase inhibitory activity EC50
T24 construct: purchased Invitrogen (SelectScreen platform)
T24 sequence (P21802 22-821): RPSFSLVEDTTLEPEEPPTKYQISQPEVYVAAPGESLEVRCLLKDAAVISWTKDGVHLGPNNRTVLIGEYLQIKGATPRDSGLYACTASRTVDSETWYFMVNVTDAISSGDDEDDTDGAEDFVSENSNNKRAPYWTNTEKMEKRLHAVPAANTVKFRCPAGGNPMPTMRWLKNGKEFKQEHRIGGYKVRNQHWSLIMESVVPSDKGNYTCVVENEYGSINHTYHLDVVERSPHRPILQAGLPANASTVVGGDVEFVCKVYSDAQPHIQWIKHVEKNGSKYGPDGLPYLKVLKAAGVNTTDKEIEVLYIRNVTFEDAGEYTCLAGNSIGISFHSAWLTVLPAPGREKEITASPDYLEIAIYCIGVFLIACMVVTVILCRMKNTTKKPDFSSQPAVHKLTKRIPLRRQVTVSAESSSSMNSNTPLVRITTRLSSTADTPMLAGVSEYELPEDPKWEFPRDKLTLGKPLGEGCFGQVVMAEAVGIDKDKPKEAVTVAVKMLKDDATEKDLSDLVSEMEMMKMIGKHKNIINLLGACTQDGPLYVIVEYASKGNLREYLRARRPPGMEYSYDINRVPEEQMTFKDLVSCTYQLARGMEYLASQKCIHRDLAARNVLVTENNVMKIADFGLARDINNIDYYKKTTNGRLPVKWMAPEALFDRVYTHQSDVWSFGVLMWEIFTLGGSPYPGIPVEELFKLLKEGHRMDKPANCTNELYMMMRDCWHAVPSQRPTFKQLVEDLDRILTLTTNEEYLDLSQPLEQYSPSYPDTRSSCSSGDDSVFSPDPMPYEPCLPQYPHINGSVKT
Description: as §1, §2, §3, §4, §5, §6

Structure (SMILES)	EC50 (PIM1)	EC50 (MAPK12 (p38 gamma))	EC50 (CSNK1G2 (CK1 gamma 2))	EC50 (DYRK1B)	EC50 (EPHB2)	EC50 (EPHA4)	EC50 (MYLK2 (skMLCK))	EC50 (SGKL (SGK3))	EC50 (PRKD2 (PKD2))	EC50 (CDC42 BPB (MRCKB))	EC50 (MAPKAPK5 (PRAK))	EC50 (ABL1 Y253F)	EC50 (PDGFRB (PDGFR beta))	EC50 (PRKCE (PKC epsilon))	EC50 (NEK4)	EC50 (PRKCB1 (PKC beta I))	EC50 (PDGFRA (PDGFR alpha))	EC50 (AKT3 (PKB gamma))	EC50 (MAP4K5 (KHS1))	EC50 (AURKA (Aurora A))	further results
CN(C)CCCNc1ccc2ncn3c4ccc5[nH]ncc5c4c(=O)c1c23 [Compound (IV)]	3.42 µM	> 5 µM	> 5 µM	0.82 µM	> 5 µM	> 5 µM	0.015 µM	> 5 µM	0.759 µM	3.63 µM	> 5 µM	2.52 µM	0.278 µM	2.52 µM	> 5 µM	> 5 µM	0.562 µM	> 5 µM	> 5 µM	> 5 µM	Kinase inhibitory activity EC50 (MYLK2 (skMLCK)): low nM; EC50 (GRK5; GRK5, estimated, abridged dose response curve, read-out: Kinase inhibitory activity EC50): > 5 µM; EC50 (CDK2/cyclin A): 0.822 µM; EC50 (PAK4): > 5 µM; EC50 (FGFR2): 2.86 µM
CCN(CC)CCNc1ccc2ncn3c4ccc(O)cc4c(=O)c1c23 [Symadex, 5-(2-(diethylamino)ethylamino)-8-hydroxy-6H-imidazo[4,5,1-de]acridin-6-one, reference compound]	0.959 µM	> 5 µM	> 5 µM	0.991 µM	> 5 µM	> 5 µM	0.041 µM	> 5 µM	0.292 µM	> 5 µM	> 5 µM	4.49 µM	1.79 µM	> 5 µM	> 5 µM	> 5 µM	1.23 µM	> 5 µM	2.43 µM	> 5 µM	EC50 (GRK5): > 5 µM; EC50 (CDK2/cyclin A): > 5 µM; EC50 (PAK4): > 5 µM; EC50 (FGFR2): 4.5 µM
